Measured values reported in ChEMBL document CHEMBL5346905, “2,6-diazaspiro[3.4]octan-7-one derivatives as potent sigma-1 receptor antagonists that enhanced the antinociceptive effect of morphine and rescued morphine tolerance” (Eur J Med Chem, 2023).
Each block holds one molecule with its values, some of them ahead of it. Active and inactive are the calls of the source. The calls are words filed in the database; no cut-off is given here.

Key:
[1] = target: T1, Sigma non-opioid intracellular receptor 1 (Cavia porcellus, UniProt Q60492); experiment: Displacement of [3H]-pentazocine from sigma1 receptor in guinea pig brain membrane at 1 uM by liquid scintillation counting analysis relative to control; assay type: cell membranes
T1 sequence (Q60492 whole entry): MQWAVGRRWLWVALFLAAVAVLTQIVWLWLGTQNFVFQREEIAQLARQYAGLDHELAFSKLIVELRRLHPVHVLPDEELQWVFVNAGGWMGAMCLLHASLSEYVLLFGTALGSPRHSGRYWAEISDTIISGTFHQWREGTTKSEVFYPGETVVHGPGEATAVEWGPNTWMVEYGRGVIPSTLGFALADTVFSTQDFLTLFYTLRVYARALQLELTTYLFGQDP

[2] = Cmax in C57BL/6J mouse at 10 mg/kg, ip measured after 24 hrs by LC-MS/MS analysis; assay type: ADME, organism-based; set-up: time 24 hrs, dose 10 mg/kg, route ip; conditions: in vivo
[3] = Ratio of drug concentration in brain to plasma in C57BL/6J mouse at 10 mg/kg, ip measured after 4 hrs by LC-MS/MS analysis; assay type: ADME, organism-based; conditions: read-out: BPR
Mus musculus [4] = experiment: Antinociceptive activity in C57BL/6J mouse assessed as reduction in nociceptive response at 30 mg/kg, ip measured after 30 mins by hot plate test; assay type: functional, organism-based
[5] = target: Sigma non-opioid intracellular receptor 1 (Homo sapiens, UniProt Q99720); experiment: Antagonist activity at sigma1 receptor (unknown origin)
Sequence of Sigma non-opioid intracellular receptor 1 (Homo sapiens, UniProt Q99720) (Q99720 whole entry): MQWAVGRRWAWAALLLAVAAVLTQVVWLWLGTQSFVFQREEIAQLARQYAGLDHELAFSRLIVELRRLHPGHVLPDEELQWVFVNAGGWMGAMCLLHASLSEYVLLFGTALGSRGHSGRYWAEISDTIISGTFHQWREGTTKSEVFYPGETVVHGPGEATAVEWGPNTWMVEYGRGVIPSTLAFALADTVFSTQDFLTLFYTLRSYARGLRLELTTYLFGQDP

Mus musculus [6] = experiment: Synergistic antinociceptive activity in C57BL/6J mouse assessed as reduction in morphine-induced nociceptive response at 30 mg/kg, ip pre-administered with compound followed by morphine addition measured after 30 mins in presence of naloxone by hot plate test; assay type: functional, organism-based
[7] = Drug concentration in brain of C57BL/6J mouse at 10 mg/kg, ip measured after 4 hrs by LC-MS/MS analysis; assay type: ADME, organism-based; conditions: read-out: Drug uptake
[8] = Half life in C57BL/6J mouse at 10 mg/kg, ip measured after 24 hrs by LC-MS/MS analysis; assay type: ADME, organism-based; conditions: in vivo
Mus musculus [9] = experiment: Reversal of morphine tolerance in morphine tolerant C57BL/6J mouse assessed as maximum possible effect of antinociception at 30 mg/kg, ip pre-treated with morphine followed by compound addition on day 4 by hot plate test (reference value: 5.4%); assay type: functional
[10] = Tmax in C57BL/6J mouse at 10 mg/kg, ip measured after 24 hrs by LC-MS/MS analysis; assay type: ADME, organism-based; conditions: in vivo
[11] = Ratio of drug concentration in brain to plasma in C57BL/6J mouse at 10 mg/kg, ip measured after 1 hrs by LC-MS/MS analysis; assay type: ADME, organism-based; conditions: read-out: BPR
Mus musculus [12] = experiment: Reversal of morphine tolerance in morphine tolerant C57BL/6J mouse assessed as maximum possible effect of antinociception at 30 mg/kg, ip pre-treated with morphine followed by compound addition on day 4 in presence of PRE-084 by hot plate test; assay type: functional, organism-based
[13] = target: Sigma intracellular receptor 2 (Homo sapiens, UniProt Q5BJF2); experiment: Antagonist activity at sigma2 receptor (unknown origin)
Sequence of Sigma intracellular receptor 2 (Q5BJF2 whole entry): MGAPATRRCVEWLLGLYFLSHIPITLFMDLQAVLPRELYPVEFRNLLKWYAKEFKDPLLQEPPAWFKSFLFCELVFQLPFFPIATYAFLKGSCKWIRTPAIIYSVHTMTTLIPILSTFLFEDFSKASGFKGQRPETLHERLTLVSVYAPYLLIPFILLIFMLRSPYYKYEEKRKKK

[14] = AUClast in C57BL/6J mouse at 10 mg/kg, ip measured after 24 hrs by LC-MS/MS analysis; assay type: ADME, organism-based; set-up: time 24 hrs, dose 10 mg/kg, route ip; conditions: in vivo
[15] = Drug concentration in brain of C57BL/6J mouse at 10 mg/kg, ip measured after 1 hrs by LC-MS/MS analysis; assay type: ADME, organism-based; conditions: read-out: Drug uptake
[16] = Drug concentration in plasma of C57BL/6J mouse at 10 mg/kg, ip measured after 4 hrs by LC-MS/MS analysis; assay type: ADME, organism-based
Mus musculus [17] = experiment: Antinociceptive activity in ip dosed C57BL/6J mouse assessed as reduction in morphine-induced nociceptive response pre-administered with compound followed by morphine addition measured after 30 mins by hot plate test; assay type: functional, organism-based; conditions: dose 0-60 mg/kg
[18] = Drug concentration in plasma of C57BL/6J mouse at 10 mg/kg, ip measured after 1 hrs by LC-MS/MS analysis; assay type: ADME, organism-based
[19] = Observed MRT(0 to infinity) in C57BL/6J mouse at 10 mg/kg, ip measured after 24 hrs by LC-MS/MS analysis; assay type: ADME, organism-based; conditions: in vivo
[20] = target: Mu-type opioid receptor (Homo sapiens) (UniProt P35372); experiment: Displacement of [3H]-DAMGO from human MOR expressed in CHO cells at 1 uM incubated for 90 mins by beta-scintillation counting analysis; assay type: cell-based
Sequence of Mu-type opioid receptor (Homo sapiens) (P35372 whole entry): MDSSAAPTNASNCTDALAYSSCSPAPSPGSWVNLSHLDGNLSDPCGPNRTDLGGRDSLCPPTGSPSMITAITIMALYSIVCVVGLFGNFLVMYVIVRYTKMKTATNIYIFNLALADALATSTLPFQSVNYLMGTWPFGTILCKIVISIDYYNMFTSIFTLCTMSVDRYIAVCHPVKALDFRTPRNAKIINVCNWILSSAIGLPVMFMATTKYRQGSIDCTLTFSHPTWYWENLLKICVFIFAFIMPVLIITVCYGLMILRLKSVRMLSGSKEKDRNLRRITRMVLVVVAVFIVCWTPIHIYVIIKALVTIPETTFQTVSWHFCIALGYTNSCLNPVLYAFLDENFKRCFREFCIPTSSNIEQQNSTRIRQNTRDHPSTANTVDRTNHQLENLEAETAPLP

Mus musculus [21] = experiment: Antinociceptive activity in C57BL/6J mouse assessed as reduction in morphine-induced nociceptive response by measuring morphine ED50 at 30 mg/kg, ip pre-administered with compound followed by morphine addition measured after 30 mins by hot plate test (reference value: 4.3 mg/kg); assay type: functional
[22] = target: T1, Sigma non-opioid intracellular receptor 1; experiment: Displacement of [3H]-pentazocine from sigma1 receptor in guinea pig brain membrane assessed as inhibition constant in presence of phenytoin by liquid scintillation counting analysis; assay type: cell membranes
Mus musculus [23] = experiment: Synergistic antinociceptive activity in C57BL/6J mouse assessed as reduction in morphine-induced nociceptive response at 30 mg/kg, ip pre-administered with compound followed by morphine addition measured after 30 mins in presence of PRE-084 by hot plate test; assay type: functional, organism-based
[24] = Observed AUC(0 to infinity) in C57BL/6J mouse at 10 mg/kg, ip measured after 24 hrs by LC-MS/MS analysis; assay type: ADME, organism-based; set-up: time 24 hrs, dose 10 mg/kg, route ip; conditions: in vivo
Mus musculus [25] = experiment: Synergistic antinociceptive activity in C57BL/6J mouse assessed as reduction in morphine-induced nociceptive response upto 60 mg/kg, ip pre-administered with compound followed by morphine addition measured after 30 mins by hot plate test; assay type: functional, organism-based

Ki [1]: 83.7 nM
SMILES: O=C1CC2(CN(CCCc3ccccc3)C2)CN1Cc1ccccc1

Cmax [2]: 990 ng/mL | Kp at 4 h [3]: 7.8 | IC50 [5]: 19.1 nM | concentration at 4 h [7]: 609 ng/g | half-life [8]: 85.2 min | Tmax [10]: 15 min | Kp at 1 h [11]: 7.38 | IC50 [13]: 227 nM | AUC(0-t) at 24 h [14]: 2240 ng·h/mL | concentration at 1 h [15]: 3790 ng/g | Ki [1]: 14.5 nM | concentration at 4 h [16]: 78 ng/mL | concentration at 1 h [18]: 513 ng/mL | MRT inf [19]: 2.08 h | Activity [20]: 16.5% | Ki [22]: 37.2 nM | AUC(0-inf) [24]: 2290 ng·h/mL
SMILES: Cc1ccc(CCCN2CC3(CC(=O)N(c4ccccc4)C3)C2)cc1
Activity (Mus musculus [4]): inactive | Activity (Mus musculus [6]): inactive | MPE (Mus musculus [9]): 70.5% | Activity (Mus musculus [12]): inactive | Activity (Mus musculus [17]): Dose-Dependent Effect | ED50 (Mus musculus [21]; 0.5 h): 2.3 mg/kg | Activity (Mus musculus [23]): inactive

Ki [1]: 181 nM
SMILES: CC(Cc1ccccc1)N1CC2(CC(=O)N(c3ccc(F)cc3)C2)C1 (stereo not given)

Ki [1]: 47.6 nM
SMILES: Cc1cccc(CCN2CC3(CC(=O)N(c4ccc(F)cc4)C3)C2)c1

Ki [1]: 68.3 nM
SMILES: Cc1ccc(N2CC3(CC2=O)CN(CCCc2ccccc2)C3)cc1

Ki [1]: 40.5 nM
SMILES: CC(Cc1ccccc1)N1CC2(CC(=O)N(c3ccccc3)C2)C1 (stereo not given)

Ki [1]: 393 nM
SMILES: O=C1CC2(CN(CCc3cccc(F)c3)C2)CN1c1ccccc1

Ki [1]: 38.8 nM
SMILES: O=C1CC2(CN(CCC3CCCCC3)C2)CN1c1ccc(F)cc1

Ki [1]: 12.9 nM
SMILES: Cc1cc(OCCN2CCOCC2)nn1-c1ccc2ccccc2c1
Activity (Mus musculus [9]): inactive | Activity (Mus musculus [21]): inactive | Activity (Mus musculus [25]): inactive

Ki [1]: 48.7 nM
SMILES: O=C1CC2(CN(CCCc3ccccc3)C2)CN1c1ccccc1

Ki [1]: 60.4 nM
SMILES: O=C1CC2(CN(CCc3ccc4ccccc4c3)C2)CN1c1ccccc1

Ki [1]: 16.8 nM
SMILES: O=C1CC2(CN(CCCc3ccc(F)cc3)C2)CN1c1ccccc1

Ki [1]: 175 nM
SMILES: O=C1CC2(CN(CCc3ccccc3)C2)CN1c1ccccc1

Ki [1]: 34.9 nM
SMILES: O=C1CC2(CN(CCCc3ccccc3)C2)CN1c1ccc(F)cc1

Ki [1]: 26.8 nM
SMILES: O=C1CC2(CN(CCCc3cccc(F)c3)C2)CN1c1ccccc1

Ki [1]: 33 nM
SMILES: Cc1cccc(CCCN2CC3(CC(=O)N(c4ccccc4)C3)C2)c1

Ki [1]: 42.7 nM
SMILES: O=C1CC2(CN(CCC3CCCCC3)C2)CN1c1ccccc1

Ki [1]: 44.5 nM
SMILES: O=C1CC2(CN(CCCc3ccccc3F)C2)CN1c1ccccc1

Ki [1]: 49.7 nM
SMILES: Cc1cccc(N2CC3(CC2=O)CN(CCCc2ccccc2)C3)c1
